# Results taken from BindingDB's records for doi:10.1016/j.bmcl.2007.06.017 (Tanabe Research Laboratories Usa, 2007).
# Target: T1, Oxysterols receptor LXR-beta (Homo sapiens, UniProt P55055)
# T1 sequence (P55055 whole entry): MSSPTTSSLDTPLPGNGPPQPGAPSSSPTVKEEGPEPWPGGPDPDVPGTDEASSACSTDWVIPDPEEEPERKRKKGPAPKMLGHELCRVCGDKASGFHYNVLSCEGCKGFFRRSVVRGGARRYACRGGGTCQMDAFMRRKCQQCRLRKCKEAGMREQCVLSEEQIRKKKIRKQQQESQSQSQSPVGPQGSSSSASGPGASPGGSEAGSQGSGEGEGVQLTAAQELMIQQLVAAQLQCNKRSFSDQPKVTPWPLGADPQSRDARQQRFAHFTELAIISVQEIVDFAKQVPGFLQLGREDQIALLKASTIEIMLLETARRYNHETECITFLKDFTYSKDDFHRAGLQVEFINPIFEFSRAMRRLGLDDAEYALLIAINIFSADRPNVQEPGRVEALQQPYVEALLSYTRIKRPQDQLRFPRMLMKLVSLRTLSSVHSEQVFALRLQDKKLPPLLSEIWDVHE
# Experiment: HTRF Cofactor Peptide Recruitment Assay
# Conditions: pH 7.5; 22 °C
# Description: Polyhistidine-tagged human LXR ligand-binding domain was mixed with the test compound, biotin-SRC1 peptide, streptavidin-allophycocyanin, and europium labeled anti-polyhistidine antibody in reaction buffer, and the mixture was incubated in a 384-well assay plate format.
compound,measurement,value
CC(C)(C)OC(=O)n1c(-c2ccc(CCNS(=O)(=O)c3ccc(-c4ccccn4)s3)cc2)cc2ccccc21 [tert-butyl 2-[4-(2-{[5-(pyridin-2-yl)thiophene-2-]sulfonamido}ethyl)phenyl]-1H-indole-1-carboxylate],EC50,230 nM
